The text below walks through data of the NIST ThermoML archive (doi:10.1021/je700640r).

± gives the expanded uncertainty stated by the source.

A short description of the data set: activity coefficient (dimensionless); of the first substance listed, at infinite dilution; xn = mol fraction of the nth substance listed. As to conditions: Liquid, Chromatography, x1 = 0.

As to `C1COCCO1` [1,4-dioxane] + CCC[n+]1ccn(C)c1C.F[B-](F)(F)F, the activity coefficient reads like this: (303.15 K) 2.96 ± 0.26; (313.15 K) 3.08 ± 0.27; (323.15 K) 3.14 ± 0.27; (333.15 K) 3.17 ± 0.27; (343.15 K) 3.24 ± 0.28; (353.15 K) 3.29 ± 0.28. In addition, where the note is “363.15 K”, the activity coefficient was found to be 3.35 ± 0.29.
With `CC(C)CO` [2-methyl-1-propanol] + CCC[n+]1ccn(C)c1C.F[B-](F)(F)F, the activity coefficient is, setting by setting: (303.15 K) 4.17 ± 0.36; (313.15 K) 3.87 ± 0.33; (323.15 K) 3.47 ± 0.3; (333.15 K) 3.07 ± 0.26; (343.15 K) 2.62 ± 0.23; (353.15 K) 2.38 ± 0.2. Moreover, the activity coefficient (363.15 K) is 2.03 ± 0.17.
In the case of `CC(C)CCO` [3-methylbutan-1-ol] + CCC[n+]1ccn(C)c1C.F[B-](F)(F)F, the activity coefficient amounted to 4.91 ± 0.42 (313.15 K); 4.46 ± 0.39 (323.15 K); 4.18 ± 0.36 (333.15 K); 3.78 ± 0.33 (343.15 K); 3.42 ± 0.29 (353.15 K); 3.02 ± 0.26 (363.15 K).
As to `CC(C)=O` [acetone] + CCC[n+]1ccn(C)c1C.F[B-](F)(F)F, the activity coefficient by setting is: (303.15 K) 2.47 ± 0.21; (313.15 K) 2.53 ± 0.22; (323.15 K) 2.55 ± 0.22; (333.15 K) 2.61 ± 0.23; (343.15 K) 2.66 ± 0.23; (353.15 K) 2.71 ± 0.23. The activity coefficient (363.15 K) came to 2.74 ± 0.24.
Regarding `CC#N` [acetonitrile] + CCC[n+]1ccn(C)c1C.F[B-](F)(F)F, the activity coefficient runs as follows: (303.15 K) 1.4 ± 0.12; (313.15 K) 1.39 ± 0.12; (323.15 K) 1.38 ± 0.12; (333.15 K) 1.37 ± 0.12; (343.15 K) 1.36 ± 0.11; (353.15 K) 1.35 ± 0.11. Also, the activity coefficient (363.15 K) was 1.34 ± 0.11.
Regarding `CCCCO` [butan-1-ol] + CCC[n+]1ccn(C)c1C.F[B-](F)(F)F, the activity coefficient by setting is: (303.15 K) 5.05 ± 0.44; (313.15 K) 4.67 ± 0.4; (323.15 K) 4.2 ± 0.36; (333.15 K) 3.73 ± 0.32; (343.15 K) 3.2 ± 0.28; (353.15 K) 2.67 ± 0.23. Also, the activity coefficient (363.15 K) was found to be 2.27 ± 0.2.
On to `CCC(C)O` (configuration not stated) [butan-2-ol] + CCC[n+]1ccn(C)c1C.F[B-](F)(F)F, for which the activity coefficient was determined as 4.28 ± 0.37 (303.15 K); 3.99 ± 0.34 (313.15 K); 3.67 ± 0.32 (323.15 K); 3.3 ± 0.28 (333.15 K); 2.87 ± 0.25 (343.15 K); 2.5 ± 0.22 (353.15 K). Besides, the activity coefficient (363.15 K) is 2.13 ± 0.18.
For the compound `ClCCl` [dichloromethane] + CCC[n+]1ccn(C)c1C.F[B-](F)(F)F, the activity coefficient came out at 1.67 ± 0.14 (303.15 K); 1.74 ± 0.15 (313.15 K); 1.84 ± 0.16 (323.15 K); 1.93 ± 0.17 (333.15 K); 2.01 ± 0.17 (343.15 K); 2.09 ± 0.18 (353.15 K). Under “363.15 K”, the activity coefficient came to 2.17 ± 0.19.
As to `CCO` [ethanol] + CCC[n+]1ccn(C)c1C.F[B-](F)(F)F, the activity coefficient by setting is: (303.15 K) 1.86 ± 0.16; (313.15 K) 1.68 ± 0.14; (323.15 K) 1.6 ± 0.14; (333.15 K) 1.51 ± 0.13; (343.15 K) 1.44 ± 0.12; (353.15 K) 1.35 ± 0.11. Further, where the note is “363.15 K”, the activity coefficient worked out at 1.18 ± 0.098.
Take `CCOC(C)=O` [ethyl acetate] + CCC[n+]1ccn(C)c1C.F[B-](F)(F)F: the activity coefficient by setting is: (303.15 K) 8.86 ± 0.77; (313.15 K) 8.84 ± 0.76; (323.15 K) 8.79 ± 0.76; (333.15 K) 8.75 ± 0.76; (343.15 K) 8.71 ± 0.75; (353.15 K) 8.66 ± 0.75. For the same compound, where the note is “363.15 K”, the activity coefficient worked out at 8.63 ± 0.74.
As to `CO` [methanol] + CCC[n+]1ccn(C)c1C.F[B-](F)(F)F, the activity coefficient runs as follows: (303.15 K) 0.898 ± 0.074; (313.15 K) 0.869 ± 0.072; (323.15 K) 0.823 ± 0.069; (333.15 K) 0.777 ± 0.065; (343.15 K) 0.713 ± 0.061; (353.15 K) 0.684 ± 0.059. For the same compound, the activity coefficient (363.15 K) was 0.642 ± 0.056.
With `CCCCCO` [pentan-1-ol] + CCC[n+]1ccn(C)c1C.F[B-](F)(F)F, the activity coefficient (313.15 K) was determined as 6.2 ± 0.54; the activity coefficient (323.15 K) is 5.31 ± 0.46; the activity coefficient (333.15 K) came out at 4.65 ± 0.4; the activity coefficient (343.15 K) came to 4.05 ± 0.35; the activity coefficient (353.15 K) was found to be 3.68 ± 0.32; the activity coefficient (363.15 K) turned out to be 3.12 ± 0.27.
Consider `CCCO` [propan-1-ol] + CCC[n+]1ccn(C)c1C.F[B-](F)(F)F, for which the activity coefficient was found to be 3.26 ± 0.28 (303.15 K); 3.01 ± 0.26 (313.15 K); 2.81 ± 0.24 (323.15 K); 2.59 ± 0.22 (333.15 K); 2.37 ± 0.2 (343.15 K); 2.19 ± 0.19 (353.15 K). Further, the activity coefficient (363.15 K) amounted to 1.88 ± 0.16.
Regarding `CC(C)O` [propan-2-ol] + CCC[n+]1ccn(C)c1C.F[B-](F)(F)F, the activity coefficient by setting is: (303.15 K) 2.62 ± 0.23; (313.15 K) 2.53 ± 0.22; (323.15 K) 2.45 ± 0.21; (333.15 K) 2.33 ± 0.2; (343.15 K) 2.21 ± 0.19; (353.15 K) 2.04 ± 0.18. Besides, for the setting “363.15 K”, the activity coefficient was determined as 1.86 ± 0.16.
Turning to `ClC(Cl)(Cl)Cl` [tetrachloromethane] + CCC[n+]1ccn(C)c1C.F[B-](F)(F)F, the activity coefficient (303.15 K) was 8.11 ± 0.7; the activity coefficient (313.15 K) was 8.63 ± 0.74; the activity coefficient (323.15 K) amounted to 9.13 ± 0.79; the activity coefficient (333.15 K) was 9.58 ± 0.83; the activity coefficient (343.15 K) stood at 10 ± 0.86; the activity coefficient (353.15 K) was found to be 10.4 ± 0.9. The activity coefficient (363.15 K) was 10.7 ± 0.92.
On to `C1CCOC1` [tetrahydrofuran] + CCC[n+]1ccn(C)c1C.F[B-](F)(F)F, for which the activity coefficient is, setting by setting: (303.15 K) 6.03 ± 0.52; (313.15 K) 5.98 ± 0.52; (323.15 K) 5.95 ± 0.51; (333.15 K) 5.92 ± 0.51; (343.15 K) 5.88 ± 0.51; (353.15 K) 5.82 ± 0.5. Besides, under “363.15 K”, the activity coefficient was 5.78 ± 0.5.
For the compound `ClC(Cl)Cl` [trichloromethane] + CCC[n+]1ccn(C)c1C.F[B-](F)(F)F, the activity coefficient by setting is: (303.15 K) 1.14 ± 0.094; (313.15 K) 1.29 ± 0.11; (323.15 K) 1.4 ± 0.12; (333.15 K) 1.52 ± 0.13; (343.15 K) 1.65 ± 0.14; (353.15 K) 1.78 ± 0.15. The activity coefficient (363.15 K) was 1.91 ± 0.16.
